From ChEMBL document CHEMBL5532638, “Current development of 1,2,3-triazole derived potential antimalarial scaffolds: Structure- activity relationship (SAR) and bioactive compounds” (Eur J Med Chem, 2023)
Values after ≈ are worked out from the molar mass of the structure shown.

Assays:
[1] = test system: Plasmodium falciparum; assay: Antiplasmodial activity against CQ-resistant Plasmodium falciparum FCR-3/Gambia subline F-86 infected in erythrocytes assessed as parasite growth inhibition incubated for 24 hrs by [3H]-hypoxanthine incorporation assay; format: functional, organism-based; settings: FCR-3/Gambia subline F-86, Erythrocyte
[2] = test system: Plasmodium falciparum; assay: Antiplasmodial activity against Plasmodium falciparum infected in O+ RBCs assessed as parasite growth inhibition incubated for 36 to 40 hrs by JSB staining based analysis; format: functional, organism-based, RBC
[3] = biological target: T1, Falcipain 2 (Plasmodium falciparum, UniProt Q9N6S8); assay: Inhibition of recombinant Plasmodium falciparum FP2
T1 sequence (Q9N6S8 whole entry): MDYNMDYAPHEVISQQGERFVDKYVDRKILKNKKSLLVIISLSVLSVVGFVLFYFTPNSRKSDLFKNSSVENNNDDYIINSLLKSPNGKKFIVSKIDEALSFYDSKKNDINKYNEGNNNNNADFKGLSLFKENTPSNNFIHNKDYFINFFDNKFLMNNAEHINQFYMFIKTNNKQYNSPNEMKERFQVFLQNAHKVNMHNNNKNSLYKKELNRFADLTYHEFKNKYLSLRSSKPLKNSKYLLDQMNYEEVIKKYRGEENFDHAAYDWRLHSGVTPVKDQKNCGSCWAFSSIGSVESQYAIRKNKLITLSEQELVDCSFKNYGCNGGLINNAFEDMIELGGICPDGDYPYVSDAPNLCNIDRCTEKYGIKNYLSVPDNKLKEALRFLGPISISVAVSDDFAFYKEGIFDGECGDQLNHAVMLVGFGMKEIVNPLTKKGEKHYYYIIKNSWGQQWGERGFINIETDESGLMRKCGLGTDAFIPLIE

[4] = test system: Plasmodium falciparum; assay: Antiplasmodial activity against Plasmodium falciparum 3D7 assessed as parasite growth inhibition; format: functional, organism-based
[5] = test system: Plasmodium falciparum; assay: Antiplasmodial activity against CQ-sensitive Plasmodium falciparum 3D7 assessed as parasite growth inhibition; format: functional, organism-based
[6] = test system: Plasmodium falciparum; assay: Antiplasmodial activity against CQ-resistant Plasmodium falciparum W2 infected in red blood cells assessed as parasite growth inhibition incubated for 72 hrs by SYBR Green I staining based analysis; format: functional, organism-based, Red blood cell; settings: W2, Erythrocyte
[7] = test system: Plasmodium falciparum; assay: Antiplasmodial activity against CQ-sensitive Plasmodium falciparum 3D7 infected in red blood cells assessed as parasite growth inhibition incubated for 72 hrs by SYBR Green I staining based analysis; format: functional, organism-based, Red blood cell; settings: 3D7, Erythrocyte
[8] = test system: Plasmodium falciparum; assay: Antiplasmodial activity against Plasmodium falciparum K1 infected in O+ RBCs assessed as parasite growth inhibition incubated for 36 to 40 hrs by Geimsa staining based analysis; format: functional, organism-based, RBC; settings: K1, Erythrocyte
[9] = test system: Plasmodium falciparum; assay: Antiplasmodial activity against Plasmodium falciparum 3D7 assessed as parasite growth inhibition incubated for 24 hrs by [3H]-hypoxanthine incorporation assay; format: functional, organism-based
[10] = Cytotoxicity against human Huh-7 cells incubated for 48 hrs by MTT assay; format: toxicity, cell-based
[11] = test system: Plasmodium falciparum; assay: Antimalarial activity against CQ-resistant Plasmodium falciparum RKL-9 field isolate at asexual stage assessed as parasite growth inhibition incubated for 22 to 36 hrs by SMI assay; format: functional, organism-based
[12] = biological target: Plasmepsin II (Plasmodium falciparum, UniProt P46925); assay: Inhibition of Plasmodium falciparum Plm-II using DABCYL-Glu-Arg-Nle-Phe-Leu-Ser-Phe-Pro-EDANS as substrate preincubated for 30 mins followed by substrate addition measured after 8 to 15 mins by FRET assay
[13] = Selectivity index, ratio of CC50 for human erythrocytes to IC50 for Plasmodium falciparum Dd2; format: toxicity; settings: read-out: Ratio CC50/IC50
[14] = test system: Plasmodium falciparum; assay: Antiplasmodial activity against CQ-resistant Plasmodium falciparum RKL-9 at trophozoite stage infected in human O+ RBCs assessed as parasite growth inhibition by SYBR Green I staining based analysis; format: functional, organism-based, RBC; settings: RKL-9, Erythrocyte
[15] = test system: Plasmodium falciparum; assay: Antiplasmodial activity against CQ-sensitive Plasmodium falciparum 3D7 at trophozoite stage infected in human O+ RBCs assessed as parasite growth inhibition by SYBR Green I staining based analysis; format: functional, organism-based, RBC; settings: 3D7, Erythrocyte
[16] = test system: Plasmodium falciparum; assay: Antiplasmodial activity against CQ-resistant Plasmodium falciparum 2/K-1 infected in human O+ red blood cells assessed as parasite growth inhibition incubated for 72 hrs by Malstat assay; format: functional, organism-based, Red blood cell; settings: 2/K-1, Erythrocyte
[17] = test system: Plasmodium falciparum; assay: Antiplasmodial activity against CQ-sensitive Plasmodium falciparum F32 Tanzania assessed as parasite growth inhibition incubated for 48 hrs; format: functional, organism-based, RBC; settings: Erythrocyte
[18] = Cytotoxicity against African green monkey Vero cells; format: toxicity, cell-based; settings: chlorocebus sabaeus
[19] = test system: Plasmodium falciparum; assay: Antiplasmodial activity against CQ-resistant Plasmodium falciparum K1 assessed as parasite growth inhibition; format: functional, organism-based
[20] = Cytotoxicity against human PC-3 cells incubated for 72 hrs by MTT assay; format: toxicity, cell-based
[21] = test system: Plasmodium falciparum; assay: Antimalarial activity against Plasmodium falciparum 3D7 assessed as parasite growth inhibition incubated for 42 hrs by [3H]-hypoxanthine incorporation assay; format: functional, organism-based
[22] = Plasmodium falciparum, Erythrocyte, read-out: IC50

Chain of Plasmepsin II (P46925 whole entry): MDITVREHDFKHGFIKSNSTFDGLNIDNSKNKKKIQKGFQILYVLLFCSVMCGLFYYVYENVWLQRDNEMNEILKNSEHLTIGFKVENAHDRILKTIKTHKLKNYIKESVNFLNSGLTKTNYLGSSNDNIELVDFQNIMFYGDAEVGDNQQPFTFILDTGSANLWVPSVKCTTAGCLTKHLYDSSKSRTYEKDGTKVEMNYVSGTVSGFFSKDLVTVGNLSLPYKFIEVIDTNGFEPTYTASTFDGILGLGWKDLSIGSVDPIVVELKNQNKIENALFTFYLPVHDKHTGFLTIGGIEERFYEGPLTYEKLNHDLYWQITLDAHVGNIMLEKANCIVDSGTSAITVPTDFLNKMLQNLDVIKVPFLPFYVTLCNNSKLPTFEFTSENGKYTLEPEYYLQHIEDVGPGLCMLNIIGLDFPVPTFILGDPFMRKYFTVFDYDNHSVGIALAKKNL

SMILES: C[C@H]1[C@@H](n2cc(-c3cccc(Cl)c3)nn2)O[C@@H]2O[C@]3(C)CC[C@H]4[C@H](C)CC[C@@H]1[C@@]24OO3
- IC50 [1]: 3.7 nM

SMILES: Cc1ccc(COC(=O)Cn2cc(CSc3ccc(C)cc3)nn2)cc1
- IC50 [2, 22]: 204 nM

SMILES: O=[N+]([O-])c1ccc(-n2cc(COc3cccc4nc(Cl)ccc34)nn2)cc1
- IC50 [3]: 16200 nM
- IC50 [4]: 49900 nM

SMILES: O=C(Cn1cc(-c2ccccc2)nn1)c1ccccc1
- IC50 [5]: 1290 nM

SMILES: OB1OCc2cc(OCc3cn(CCCNc4ccnc5cc(Cl)ccc45)nn3)ccc21
- IC50 [6]: 3910 nM
- IC50 [7]: 4130 nM

SMILES: C=C[C@H]1CN2CC[C@H]1C[C@@H]2[C@@H](c1ccnc2ccc(OC)cc12)n1cc(CCCCCCCCCCCCCC)nn1
- IC50 [8]: 280 nM

SMILES: O=C(Cn1cc(CSc2ccc(Br)cc2)nn1)OCc1ccc([N+](=O)[O-])cc1
- IC50 [2, 22]: 183 nM

SMILES: O=C(Cn1cc(CSc2ccc3ccccc3c2)nn1)OCc1ccc([N+](=O)[O-])cc1
- IC50 [2, 22]: 207 nM

SMILES: Cc1ccc(OCc2cn(-c3ccc(S(N)(=O)=O)cc3)nn2)cc1
- IC50 [9]: 6.2 µg/mL (≈ 18 µM)
- CC50 at 48 h [10]: 7.5 µg/mL (≈ 21.8 µM)

SMILES: O=C(Cn1cc(COc2ccc(Cl)cc2)nn1)NCCNc1ccnc2cc(Cl)ccc12
- IC50 [11]: < 100 nM

SMILES: CCCCCc1ccc(-n2nnc(CCN3CCN(C)CC3)c2Cc2ccc(-c3ccc(OC)cc3)cc2)cc1
- IC50 [12]: 1800 nM

SMILES: O=c1ccc2ccc(OCc3cn(-c4ccc(OCc5ccc(Br)cc5)cc4)nn3)cc2o1
- IC50 ([2]; rbc): 0.54 microg/cm3

SMILES: Cc1ccc(COc2ccc(-n3cc(COc4ccc5ccc(=O)oc5c4)nn3)cc2)cc1
- IC50 ([2]; rbc): 0.38 microg/cm3

SMILES: O=[N+]([O-])c1ccc(Cn2cc(CO)nn2)cc1
- selectivity ratio [13]: 161

SMILES: O=C(Cn1cc(CSc2ccc(Cl)cc2)nn1)OCc1ccccc1
- IC50 [2, 22]: 209 nM

SMILES: COc1ccccc1C(=O)/C=C/c1cn(Cc2cn(-c3ccnc4cc(Cl)ccc34)nn2)c2ccccc12
- IC50 [14]: 3500 nM
- IC50 [15]: 2400 nM

SMILES: O=C(Cn1cc(Oc2ccc(Cl)cc2)nn1)NCCNc1ccnc2cc(Cl)ccc12
- IC50 [11]: 8.5 nM

SMILES: CCc1nnc2ccc(S(=O)(=O)N(Cc3cccc(F)c3)c3ccc(OC)cc3)cn12
- IC50 [16]: 4980 nM

SMILES: Cc1cc(C)nc(NS(=O)(=O)c2ccc(-n3cc(COc4ccc(Cl)cc4Cl)nn3)cc2)n1
- IC50 [9]: 16.7 µg/mL (≈ 33 µM)

SMILES: O=C1C=C(OCc2cn(-c3ccccc3)nn2)C(=O)c2ccccc21
- IC50 [17]: 1200 nM

SMILES: O=C(Cn1cc(CSc2ccc(Cl)cc2)nn1)OCc1ccc(Cl)cc1
- IC50 [2, 22]: 208 nM

SMILES: C[C@H](Cn1cc(C(C)(C)O)nn1)C1CCC2[C@@H](O)CCC[C@]12C (stereo partly drawn)
- IC50 [5]: 20 nM

SMILES: C[C@H]1[C@H](n2nncc2-c2cccc(Cl)c2)O[C@@H]2O[C@]3(C)CC[C@H]4[C@H](C)CC[C@@H]1[C@@]24OO3
- IC50 [1]: 4.2 nM

SMILES: Cc1ccccc1COc1ccc(-n2cc(COc3cc(=O)oc4ccccc34)nn2)cc1
- IC50 ([2]; rbc): 0.53 microg/cm3

SMILES: Cc1ccc(COC(=O)Cn2cc(CSc3ccc(Br)cc3)nn2)cc1
- IC50 [2, 22]: 178 nM

SMILES: O=S(=O)(c1ccc(-n2cc(COc3ccc(I)cc3)nn2)cc1)N1CCN(c2ccccc2)CC1
- IC50 [9]: 12.9 µg/mL (≈ 21.4 µM)

SMILES: C=C[C@H]1CN2CC[C@H]1C[C@@H]2[C@@H](c1ccnc2ccc(OC)cc12)n1cc(C[C@H](N)C(=O)O)nn1
- IC50 [8]: 250 nM

SMILES: Cc1ccccc1C(=O)/C=C/c1cn(Cc2cn(-c3ccnc4cc(Cl)ccc34)nn2)c2ccccc12
- IC50 [14]: 2700 nM
- IC50 [15]: 1800 nM

SMILES: C=C[C@H]1CN2CC[C@H]1C[C@@H]2[C@@H](c1ccnc2ccc(OC)cc12)n1cc(CN2CCCC2C(=O)OCC)nn1 (stereo partly drawn)
- IC50 [8]: 330 nM

SMILES: O=C(Cn1cc(COc2ccccc2)nn1)NCCCNc1ccnc2cc(Cl)ccc12
- IC50 [11]: 75 nM

SMILES: O=c1ccc2ccc(OCc3cn(-c4ccc(OCc5ccc(F)cc5)cc4)nn3)cc2o1
- IC50 ([2]; rbc): 0.49 microg/cm3

SMILES: C[C@@H]1[C@@H](n2cc(-c3cccc(Cl)c3)nn2)O[C@@H]2O[C@]3(C)CC[C@H]4[C@H](C)CC[C@@H]1[C@@]24OO3
- IC50 [1]: 2.5 nM

SMILES: ClCCCCn1cc(-c2ccccc2)nn1
- IC50 [5]: 3290 nM

SMILES: CCCCCc1ccc(-n2nnc(CCN3CCCC3)c2Cc2ccc(-c3ccc(OC)cc3)cc2)cc1
- IC50 [12]: 600 nM

SMILES: COc1ccc(-n2cc(COC3=CC(=O)c4ccccc4C3=O)nn2)cc1F
- IC50 [17]: 800 nM

SMILES: CCCCCc1ccc(-n2nnc(CCN(CC)CC)c2Cc2ccc(-c3ccc(OC)cc3)cc2)cc1
- IC50 [12]: 600 nM

SMILES: O=c1n(Cc2cccc(Cl)c2)nc2c(S(=O)(=O)N3CCCCC3)cccn12
- IC50 [16]: 2240 nM

SMILES: COc1cc(/C=C/C(=O)c2ccc(Cl)cc2)ccc1OCc1cn(-c2ccnc3cc(Cl)ccc23)nn1
- CC50 [18]: 46200 nM
- IC50 [19]: 3140 nM

SMILES: COc1ccc2cc3[n+](cc2c1OCc1cn(-c2ccc(S(N)(=O)=O)cc2)nn1)CCc1cc2c(cc1-3)OCO2.[Cl-]
- CC50 at 72 h [20]: > 200 µg/mL
- IC50 [21]: 0.1 µg/mL

SMILES: O=C(Cn1cc(CSc2ccc(Br)cc2)nn1)OCc1ccc(Cl)cc1
- IC50 [2, 22]: 203 nM

SMILES: C=C[C@H]1CN2CC[C@H]1C[C@@H]2[C@@H](c1ccnc2ccc(OC)cc12)n1cc(CCCCCC)nn1
- IC50 [8]: 280 nM
